According to US9821027B2, “Method for regenerating cartilage comprising applying a monovalent metal salt of alginic acid and SDF-1” (Mochida Pharmaceutical Co., Ltd., priority 2011, dated 2017):

Legend:
[1] = system: bone marrow mesenchymal stromal cells (BMSC); assay: BMSC proliferation in alginic acid gel beads (Cell Counting Kit-8); assay type: cell-based, Japanese white rabbit; details: 10 μg/ml SDF-1 or 250 μg/ml AMD3100 in alginic acid gel beads vs alginic acid only, up to 7 days, n=5
Experimental: (§1) Bone marrows were collected from a tibia of a 15-week-old Japanese white rabbit to isolate and culture bone marrow mesenchymal stromal cells (BMSC). Isolation was carried out according to the method of Wakitani et al. (Wakitani S et al., J bone Joint Surg Am, Vol. 76, p 579, 1994). The isolated cells were incubated at 37° C. under humidified 5% CO2 and maintained in monolayer culture.
(§2) Proliferation and differentiation of BMSC were tested by embedding BMSC in alginic acid gel beads. The cells were suspended in a 2% sodium alginate solution. The suspension was dripped in a CaCl2 solution with a pipette for gelation. Ten minutes later, the resulting microcapsules were washed twice with Ca/Mg-free PBS and once with DMED-HG. The resulting beads contained 1×10^6 cells per 40 μl of beads.
The alginic acid gel beads containing 10 μg/ml of SDF-1 or 250 μg/ml of AMD3100 were cultured in DMED-HG containing 10% FBS and 1% antibiotics for 3 hours, 1 day, 2 days, 3 days and 7 days. The cells collected from the alginic acid gel beads were washed with PBS for three times, incubated in 50 mM EDTA (Gibco BRL laboratories) at 37° C. under 5% CO2. Ten minutes later, the cells were centrifuged at 1,500 g for 5 minutes for cell collection and the number of live cells was counted with Cell Counting Kit-8 (Dojindo Laboratories, Tokyo, Japan).

[2] = system: bone marrow mesenchymal stromal cells (BMSC); assay: BMSC differentiation into chondrocytes in alginic acid gel beads; assay type: cell-based, Japanese white rabbit; details: 10 μg/ml SDF-1 or 250 μg/ml AMD3100 in alginic acid gel beads vs alginic acid only, 28 days
Experimental: as §1, §2
Differentiation into chondrocytes in the alginic acid gel beads was tested by culturing BMSC-containing beads in a DMED-HG medium containing 100 μg/ml sodium pyruvate (ICN Biomedicals, Aurora, Ohio), 40 μg/ml proline (ICN Biomedicals), 50 μg/ml ascorbate-2-phosphate (Wako, Osaka, Japan), 1×10^−7M dexamethasone (ICN Biomedicals), 1% ITS plus mix (Sigma-Aldrich, St. Louis., Mo.), 1% antibiotics and 10 ng/ml recombinant human transforming growth factor […] (R&D Systems, Minneapolis, Minn.) (dissolved with 4 mM HCl containing 1 μg/ml bovine serum albumin) for 28 days. The medium was exchanged every three days. […]

With `c1cc(CN2CCCNCCNCCCNCC2)ccc1CN1CCCNCCNCCCNCC1` [AMD3100] the “BMSC proliferation (number of live cells)” value [1] was “no significant difference” and the “differentiation of BMSC into chondrocytes” value [2] was “no difference”.
